Biological target: T1, OTUD3 (Homo sapiens, UniProt Q5T2D3)
T1 sequence (Q5T2D3 1-398): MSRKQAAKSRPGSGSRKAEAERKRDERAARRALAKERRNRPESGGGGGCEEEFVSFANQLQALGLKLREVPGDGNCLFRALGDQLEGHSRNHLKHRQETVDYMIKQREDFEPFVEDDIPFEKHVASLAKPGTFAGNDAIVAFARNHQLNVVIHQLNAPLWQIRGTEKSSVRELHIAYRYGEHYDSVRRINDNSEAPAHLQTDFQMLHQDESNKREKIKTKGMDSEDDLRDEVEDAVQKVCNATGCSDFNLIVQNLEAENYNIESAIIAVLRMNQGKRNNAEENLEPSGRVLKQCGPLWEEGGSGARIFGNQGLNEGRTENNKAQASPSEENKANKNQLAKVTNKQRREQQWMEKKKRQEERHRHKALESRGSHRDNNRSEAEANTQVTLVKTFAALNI
Test: microscale thermophoresis (MST) with labeled OTUD3; supported by in vitro K48 di-ubiquitin cleavage assay with purified OTUD3 OTU (aa […]) at […] Rolapitant
Type: binding

For `C[C@@H](OC[C@@]1(c2ccccc2)CC[C@]2(CCC(=O)N2)CN1)c1cc(C(F)(F)F)cc(C(F)(F)F)c1` [Rolapitant], the “microscale thermophoresis (MST) with labeled OTUD3; supported by in vitro K48 di” value was “MST (microscale thermophoresis) assays shown that OTUD3 could directly bind to Rolapitant in vitro”.
